Residues, ends and D or L forms follow the SMILES beside them. *: point of attachment. Cbz = O=C(OCc1ccccc1)*
| melting point [°C] | SMILES |
| --- | --- |
| 110 | COc1ccc(CN(C)CCCCCc2ccc(NC(=O)c3cccc4c(=O)c5ccccc5[nH]c34)cc2)cc1OC |
| 291 to 294 | Cc1nc(O)c(C(=O)O)cc1Cl |
| 74 to 77 | CCCS(=O)(=O)c1ccccc1S(=O)(=O)Cl |
| 189 to 191 | COC(=O)c1ccc(-c2ccc3cc(OCc4ccc(F)cc4)c(C45CC6CC(CC(C6)C4)C5)cc3c2)cc1O |
| 205 to 206 | COc1ccc(-c2cc(-c3ccccc3)[nH]c2C(=O)Nc2cccc(CC(=O)NO)c2)cc1 |
| 80 to 81 | CCCCCCCCCCc1ccc(C(=O)COC)c(OC(=O)c2cc(OC)c(OC)cc2OC)c1 |
| 140 | CC(C)(C)OC(=O)[C@@H]1CS[C@H](c2ccccc2)N1C(=O)CNC(=O)Nc1cccc(CC(=O)O)c1 |
| 89 to 89.5 | Fc1cccc2oc(CCC#Cc3ccccn3)nc12 |
| 183 to 185 | Cc1ccn(-c2ccc(C(=O)N3Cc4cccnc4Nc4ccccc43)c(C(F)(F)F)c2)n1 |
| > 250 | CC1(C)C=C(c2c(N)c(=O)c2=O)c2cc(C#N)ccc2O1 |
| 206 | COc1ccc2nccc(CCC[C@@H]3CCN(CCCc4cccc(F)c4)C[C@@H]3C(=O)O)c2c1 |
| 226 | CCOC(=N)c1sc2cc(Cl)ccc2c1O |
| 110 to 112 | CC1CC(=O)NN=C1c1ccc(NC(=O)C(C)OS(C)(=O)=O)cc1 (centres undefined) |
| 184 | O=C(c1cccs1)c1cnn2c(-c3cccc(-c4nnn(Cc5ccccn5)n4)c3)ccnc12 |
| 210 to 211 | C[C@@H](n1cnc2ncccc2c1=O)[C@](O)(Cn1cncn1)c1ccc(F)cc1F |
| 184 to 186 | CCOC(=O)c1[nH]cnc1C(F)(F)F |
| 134 to 135 | Cn1ccc(S(=O)(=O)NC(C)(C)C)c1 |
| > 359 | COc1ccc(C(=O)Nc2c(Cl)cncc2Cl)c2c1[nH]c1ccc(Cl)cc12 |
| 161 to 163 | CC1(C)CCC(C)(C)c2cc3c(cc21)C(=O)C=CC3=O |
| 120 to 121 | CCCNc1nc(C#N)c(C#N)nc1-c1cccc(Cl)c1 |
| 114 | COc1ccccc1CNc1ccc2cc(Nc3nccc(C(F)(F)F)n3)ccc2n1 |
| 149 to 151 | CC1C=CCCC1C(O)C(N)=O (centres undefined) |
| 172 to 174 | CN(C(=O)C(F)(F)F)c1ccc2[nH]ncc2c1 |

| melting point [°C] | SMILES |
| --- | --- |
| 144 | COc1ccc(N2C(=O)C(C)(C)N(c3ccc(Oc4ccccc4)cc3)C2=S)cc1 |
| 117 to 121 | COC(=O)C(O)C(CC(C)C)NC(=O)C(Cc1c[nH]cn1)NC(=O)C(CC(=O)N(C)C)Cc1cccc2ccccc12 (mixture of isomers) |
| 83 | C[Si](C)(C)c1cn(Cc2ccc(C#N)cc2)nn1 |
| 138 to 140 | COc1cccc(-c2cccc(C(N)=O)c2)c1 |
| 138 to 139 | COc1ccc(C(=O)c2ccc(Cl)nc2)c(O)c1 |
| 96 to 99 | Cc1cn(C(C)(C(=O)N(C)C)c2ccccc2)nc1-c1ccccc1Cl (centres undefined) |
| 246 to 250 | Cc1ccc(C(C#N)C(=O)C(=O)C(C#N)c2ccc(C)cc2)cc1 (centres undefined) |
| 103 to 106 | COC(=O)C(C)NC(=O)C1CCCN1C(=O)CNC(=O)OCc1ccccc1 (stereo not drawn) (Cbz-Gly-Pro-Ala-OMe; configuration not given here) |
| 118 to 119 | COc1cc(N)c(Cl)cc1C(=O)NN1CCN2CCCCC2C1 (centres undefined) |
| 43 | CCCCCCCCCCc1cnc(-c2ccc(OCC(C)(C#N)CCCC)cc2)nc1 (centres undefined) |
| 119 to 120 | CC(C)CC(CC1CCCCC1)Cn1ccnc1 (centres undefined) |
| 145 to 149 | CC(C(=O)O)c1ccc(-c2ccc(Cl)cc2F)c(O)c1 (centres undefined) |
| 98 to 100 | CCOC(=O)CNc1ncccc1NC(=O)c1ccccn1 |
| 80 to 82 | CCNC(=O)n1nc(Oc2c(Cl)cc(C(F)(F)F)cc2Cl)cc1C |
| 55 to 64 | O=C(O)CCC1(c2cccs2)SCCS1 |
| 171 to 173 | C=C(Oc1cc(-n2c(=O)cc(C(F)(F)F)[nH]c2=O)c(F)cc1Cl)C(=O)OC |
| 138 | Cc1cc(Cc2cc(C(C)(C)CC(C)(C)C)cc(C(C)(C)CC(C)(C)C)c2O)c(O)c(-n2nc3ccccc3n2)c1 |
| 225 to 226 | COc1ccc(-c2c(Cl)c(CN3C(=O)CCC3=O)nc3sc4c(c23)CCNC4)cc1 |
| 185 to 186 | O=C1Nc2c(ccc3ccccc23)SC1Cc1ccc(Cl)cc1 (centres undefined) |
| 108 | CC(C)(C)CC(C)(C)Nc1cc(Cl)ccc1[N+](=O)[O-] |
| 156 to 158 | COc1ccc(C(=O)c2ccc(Cl)c(S(N)(=O)=O)c2)cc1 |
| 93 | CSc1csc2c1CCN(C)CC2c1ccccc1 (centres undefined) |
| 143 | Cc1ccc(NC(=S)NC(=O)c2ccccc2)c(Cl)c1 |

| melting point [°C] | SMILES |
| --- | --- |
| 107 to 110 | Cc1oc(-c2ccccc2)nc1CCOc1ccc(CC(Nc2ccccc2C(=O)c2ccccc2C(=O)O)C(=O)O)cc1 (centres undefined) |
| 205 to 208 | Nc1nc(N)c2c(ccc3c2ccn3Cc2ccc(OC(F)(F)F)cc2)n1 |
| 168 | COc1ccc(-c2nc(-c3ccc(Cl)cc3)ncc2C(=O)N2CCOCC2)cc1OC |
| 91 to 92 | CCOc1ccc(C2=NN(Cc3ccccc3)C(=O)[C@H]3CCCC[C@@H]23)cc1OCC (relative stereo) |
| 76 to 78 | CC(C)(C)c1cccc(C[C@@H](NC(=O)c2ccc(F)c3ccccc23)[C@@H](O)c2cccc(Cl)c2)c1 (racemic) |
| 130 to 132 | COC(=O)c1ccccc1-c1ccc(OC)cn1 |
| 112 to 116 | COc1ccc(N2CCN(c3c(C)c(C)c4c(c3C)C(N3CCN(Cc5ccccc5)CC3)C(C)(C)O4)CC2)cc1 (centres undefined) |
| 128 to 130 | Cc1ccc(S(=O)(=O)Nc2cccc(Sc3ccccc3)n2)cc1 |
| 148 to 150 | N#Cc1cc(Br)cc2ccc(O)c(Cl)c12 |
| 84.8 to 88.7 | CCc1nc2cnc3ccccc3c2n1CCCCN |
| 141 to 146 | CNC(=O)c1nc2ccc3c(c2c(-c2ccc4c(c2)OCO4)c1C)OCO3 |
| 243 | Cc1c(C(=O)Nc2ccc(N3CCC(N4CCOCC4)CC3)c(C#N)c2)cnn1-c1ccc(F)c(F)c1 |
| 241 to 244 | O=C(N[C@H]1CC[C@H](N2CCN(c3ccccn3)CC2)CC1)c1ccccc1 |
| 118 to 121 | CNC(=O)C(=NOC)c1ccccc1Oc1cccc(-c2ccc(Cl)cc2)c1 |
| 105 to 107 | CN(CCc1ccc(NC(=N)C(F)(F)F)cc1)Cc1ccccc1 |
| 125 to 127 | CC(CNC(=S)Nc1ccc(N2CCCCC2)cc1)N(Cc1ccc(Cl)c(Cl)c1)c1ccc(Br)cn1 (centres undefined) |
| 142 to 144 | NCC1CCc2[nH]c3ccc(Cl)cc3c2C1 (centres undefined) |
| 102 to 104 | COC(=O)c1cc(Oc2ccc(F)cc2F)ncc1N |
| 211 to 212 | COc1ccc(-n2cc(CCC(=O)NS(C)(=O)=O)c(-c3ccc(Cl)c(F)c3)n2)cc1Cl |
| 53 to 55 | CCCCCCCCCCCCCCCCCCOCC(O)COC(c1ccccc1)(c1ccccc1)c1ccccc1 (centres undefined) |
| 109 to 111 | COc1c(Cl)ccc(-c2nc(C(=O)OC(C)C)c(Cl)c(N)c2F)c1F |

| SMILES | melting point [°C] |
| --- | --- |
| CN1Cc2c(I)ncn2-c2cccc(Br)c2C1=O | 203 to 204 |
| COC(=O)c1ncn2c1[C@@H]1CCCN1C(=O)c1ccccc1-2 | 165 to 167 |

Source: a melting point compilation (Tetko et al.; mined from patent text by program, amines drawn as free bases though some values may be those of a salt)
